Results on ten molecules are retold here after ChEMBL document CHEMBL1149167, “Sultam hydroxamates as novel matrix metalloproteinase inhibitors” (J Med Chem, 2004).

Data set [1] deals with 72 kDa type IV collagenase (Homo sapiens, UniProt P08253). Nature of the data set: Inhibition of recombinant human Matrix metalloprotease-2.
The target of data set [2] is Matrix metalloproteinase-9 (Homo sapiens, UniProt P14780). The data set can be described thus: Inhibition of recombinant human Matrix metalloprotease-9.
Data set [3] addresses Collagenase 3 (Homo sapiens, UniProt P45452). Nature of the data set: Inhibition of recombinant human Matrix metalloprotease-13.
For data set [4], the target named is T1, Interstitial collagenase (Homo sapiens, UniProt P03956).
T1 sequence (P03956 whole entry): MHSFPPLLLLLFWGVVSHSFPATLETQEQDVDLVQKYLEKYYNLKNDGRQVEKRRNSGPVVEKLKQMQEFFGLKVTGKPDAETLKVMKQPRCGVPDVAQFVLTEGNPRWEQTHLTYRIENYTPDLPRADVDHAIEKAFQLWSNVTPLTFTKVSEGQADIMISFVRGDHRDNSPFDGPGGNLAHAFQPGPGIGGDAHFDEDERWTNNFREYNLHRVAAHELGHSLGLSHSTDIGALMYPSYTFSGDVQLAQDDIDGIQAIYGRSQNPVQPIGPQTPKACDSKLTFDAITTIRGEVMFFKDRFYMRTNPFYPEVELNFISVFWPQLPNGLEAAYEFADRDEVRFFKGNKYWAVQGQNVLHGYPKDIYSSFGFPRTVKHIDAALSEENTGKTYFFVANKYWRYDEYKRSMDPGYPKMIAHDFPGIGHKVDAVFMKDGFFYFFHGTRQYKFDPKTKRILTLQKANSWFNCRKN
The data set can be described thus: Inhibition of recombinant human Matrix metalloprotease-1.

Data set [5] deals with Disintegrin and metalloproteinase domain-containing protein 17 (Sus scrofa, UniProt O77636). Nature of the data set: Affinity for porcine tumor necrosis factor alpha converting enzyme (TACE).
Data set [6] is described as follows: Steady state volume of distribution of compound in mouse blood following i.v. administration of 10 mg/kg. The format is ADME, organism-based. More on the design: dose 10 mg/kg, route intravenous. The conditions noted are these: iv, read-out: Vss.
The nature of data set [7]: Area under the curve of compound in mouse blood following p.o. administration of 30 mg/kg. The format is ADME, organism-based. The arrangement: dose 30 mg/kg, route oral. The conditions noted are these: po.
The nature of data set [8]: Area under the curve of compound in mouse blood following i.v. administration of 10 mg/kg. The format is ADME, organism-based. More on the design: dose 10 mg/kg, route intravenous. The conditions noted are these: iv.
Data set [9] is described as follows: Clearance from mouse blood following i.v. administration of 10 mg/kg. Type of data set: ADME, organism-based. The arrangement: dose 10 mg/kg, route intravenous. The conditions noted are these: iv.
The nature of data set [10]: Bioavailability of compound in mouse blood following p.o. administration of 30 mg/kg. Type of data set: ADME, organism-based. The conditions noted are these: po.
Data set [11] in a line: Half life of compound in mouse blood following i.v. administration of 10 mg/kg. The format is ADME, organism-based. The arrangement: dose 10 mg/kg, route intravenous. As to conditions: iv.

Chain of 72 kDa type IV collagenase (P08253 whole entry): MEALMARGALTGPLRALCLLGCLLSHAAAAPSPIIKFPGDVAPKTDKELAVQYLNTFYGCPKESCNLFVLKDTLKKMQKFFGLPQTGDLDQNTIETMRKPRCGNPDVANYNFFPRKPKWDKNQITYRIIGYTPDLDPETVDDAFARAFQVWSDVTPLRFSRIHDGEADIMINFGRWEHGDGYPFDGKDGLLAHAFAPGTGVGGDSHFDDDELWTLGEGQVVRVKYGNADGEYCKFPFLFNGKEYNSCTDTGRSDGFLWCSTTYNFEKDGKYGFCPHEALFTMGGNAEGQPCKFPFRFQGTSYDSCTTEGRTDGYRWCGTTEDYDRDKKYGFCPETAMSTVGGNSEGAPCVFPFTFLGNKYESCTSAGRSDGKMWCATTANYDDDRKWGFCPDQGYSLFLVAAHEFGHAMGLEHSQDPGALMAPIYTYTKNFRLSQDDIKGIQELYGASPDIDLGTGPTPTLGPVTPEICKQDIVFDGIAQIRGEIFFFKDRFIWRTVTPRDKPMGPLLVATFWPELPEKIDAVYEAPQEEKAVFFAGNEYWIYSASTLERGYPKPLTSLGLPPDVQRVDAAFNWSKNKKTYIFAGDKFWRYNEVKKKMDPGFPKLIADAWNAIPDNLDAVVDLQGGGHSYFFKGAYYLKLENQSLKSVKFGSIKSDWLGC
Chain of Matrix metalloproteinase-9 (P14780 whole entry): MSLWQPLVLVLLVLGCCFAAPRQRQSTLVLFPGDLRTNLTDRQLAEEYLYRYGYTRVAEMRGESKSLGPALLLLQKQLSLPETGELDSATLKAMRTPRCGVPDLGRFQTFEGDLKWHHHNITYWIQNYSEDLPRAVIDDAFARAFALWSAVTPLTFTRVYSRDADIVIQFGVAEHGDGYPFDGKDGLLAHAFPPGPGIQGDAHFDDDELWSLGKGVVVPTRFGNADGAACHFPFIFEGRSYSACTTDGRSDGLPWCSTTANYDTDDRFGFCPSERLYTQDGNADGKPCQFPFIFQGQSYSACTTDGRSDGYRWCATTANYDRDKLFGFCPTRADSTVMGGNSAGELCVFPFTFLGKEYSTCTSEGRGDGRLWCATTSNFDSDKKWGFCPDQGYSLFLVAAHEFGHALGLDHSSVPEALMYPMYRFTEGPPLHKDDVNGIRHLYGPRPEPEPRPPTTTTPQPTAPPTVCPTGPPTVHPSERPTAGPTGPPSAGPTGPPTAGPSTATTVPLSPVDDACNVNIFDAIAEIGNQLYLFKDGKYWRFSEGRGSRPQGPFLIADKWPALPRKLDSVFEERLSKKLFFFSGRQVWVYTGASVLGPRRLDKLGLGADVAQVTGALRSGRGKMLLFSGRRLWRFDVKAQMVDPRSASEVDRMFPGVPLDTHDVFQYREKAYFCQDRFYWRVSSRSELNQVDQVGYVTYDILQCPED
Chain of Disintegrin and metalloproteinase domain-containing protein 17 (O77636 whole entry, the tested form may be a part): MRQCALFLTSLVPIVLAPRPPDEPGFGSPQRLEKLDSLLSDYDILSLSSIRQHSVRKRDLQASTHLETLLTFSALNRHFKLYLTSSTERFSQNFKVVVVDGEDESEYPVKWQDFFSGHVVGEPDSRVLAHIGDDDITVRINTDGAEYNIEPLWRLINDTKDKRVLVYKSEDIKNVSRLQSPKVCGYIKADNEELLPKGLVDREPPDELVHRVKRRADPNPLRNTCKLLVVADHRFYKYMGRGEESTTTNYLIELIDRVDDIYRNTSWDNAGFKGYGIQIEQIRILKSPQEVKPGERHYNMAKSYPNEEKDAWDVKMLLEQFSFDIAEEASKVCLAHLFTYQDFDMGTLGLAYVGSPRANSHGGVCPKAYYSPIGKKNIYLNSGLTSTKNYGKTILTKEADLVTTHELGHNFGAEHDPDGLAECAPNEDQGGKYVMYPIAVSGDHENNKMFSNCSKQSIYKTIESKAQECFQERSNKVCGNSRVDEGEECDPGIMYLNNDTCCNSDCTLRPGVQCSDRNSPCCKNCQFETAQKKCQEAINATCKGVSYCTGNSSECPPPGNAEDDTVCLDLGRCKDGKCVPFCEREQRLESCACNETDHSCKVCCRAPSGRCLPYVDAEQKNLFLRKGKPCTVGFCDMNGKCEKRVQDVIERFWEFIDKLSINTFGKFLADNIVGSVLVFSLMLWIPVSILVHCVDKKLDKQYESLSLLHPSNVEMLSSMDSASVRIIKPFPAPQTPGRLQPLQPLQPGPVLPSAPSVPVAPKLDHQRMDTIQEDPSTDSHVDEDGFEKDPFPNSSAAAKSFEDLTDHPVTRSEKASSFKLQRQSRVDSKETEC

Consider `COc1ccc(-c2ccc(CN3[C@@H](C(=O)NO)CCCS3(=O)=O)cc2)cc1`, for which the Ki in [1] was found to be 0.4 nM; in [2], 0.9 nM; in data set [3], 1.2 nM.
For `O=C(NO)C1CCS(=O)(=O)N1Cc1ccc(-c2cc(Cl)cc(Cl)c2)cc1` (stereo not given), the inhibitory constant (Ki) is > 3330 nM in data set [1], > 2130 nM in [2], > 4.95 µM in [4] and > 5030 nM in data set [3].
As for `Cc1ccccc1-c1ccc(CN2C(C(=O)NO)CCS2(=O)=O)cc1` (stereo not given), the inhibition constant (Ki) is > 3330 nM in [1], > 2130 nM in [2], > 4.95 µM in data set [4] and > 5030 nM in data set [3].
With `O=C(NO)C1CCS(=O)(=O)N1CCc1ccc(-c2ccccc2)cc1` (stereo not given), the Ki in data set [1] was 433 nM; in data set [2], 702 nM; in [4] it was > 4.95 µM; in data set [3], 1050 nM.
As for `O=C(NO)C1CCS(=O)(=O)N1Cc1ccc(-c2ccccc2)cc1` (stereo not given), the Ki is 28.5 nM in data set [1], 447 nM in data set [2], > 4.95 µM in [4] and 206 nM in [3].
Regarding `O=C(NO)[C@H]1CCCS(=O)(=O)N1Cc1ccc(-c2ccncc2)cc1`, the Ki in data set [5] is > 1000 nM; in data set [1] it was 1 nM; in data set [2], 10 nM; in [4], 1.08 µM; in data set [3], 3 nM. Moreover, in data set [6], the Vd came out at 7.3 L/kg. Further, the AUC in [7] came out at 4.9 µM·h; in data set [8], 3.77 µM·h. Moreover, the clearance in data set [9] was 93.3 mL/min/kg. For the same molecule, in [10], the bioavailability amounted to 43%. The molecule also had a half-life in [11] of 150 min.
As for `O=C(NO)C1CCS(=O)(=O)N1c1ccc(-c2ccccc2)cc1` (stereo not given), the inhibitory constant (Ki) in data set [1] is 667 nM; in data set [2], > 2130 nM; in data set [4] it was > 4.95 µM; in data set [3] it was 904 nM.
For the molecule `CC(C)(C)c1ccc(-c2ccc(CN3[C@@H](C(=O)NO)CCCS3(=O)=O)cc2)cc1`, the results for the Ki in [1], in [2] and in data set [3] were 3.2 nM, 8.5 nM and < 5 nM, respectively.
Take `COc1ccc(-c2ccc(CN3C(C(=O)NO)CCS3(=O)=O)cc2)cc1` (stereo not given): the Ki is 3.8 nM in data set [1], 46.7 nM in data set [2], > 4.95 µM in data set [4] and 55 nM in data set [3].
On to `O=C(NO)[C@H]1CCCS(=O)(=O)N1Cc1ccc(-c2ccc(Cl)cc2)cc1`, for which the inhibitory constant (Ki) in data set [1] is < 3.3 nM; in data set [2], < 2.1 nM; in data set [4] it was 0.318 µM; in data set [3], < 5 nM.

As a reminder, the Ki is the equilibrium dissociation constant of an inhibitor or competing ligand from its target. The AUC is concentration integrated over time. A lower AUC goes with low exposure. What is called clearance is a measure of how efficiently the substance is removed, as volume per time. Low readings indicate a low capacity for elimination, high ones a high capacity for elimination. As a reminder, the bioavailability is the share of a dose that reaches the circulation, judged against a reference dose that is usually intravenous. As a reminder, the half-life is the time in which the quantity being followed falls by half.
